Measurements taken from publication PMC6104605, “Discovery of new chromen-4-one derivatives as telomerase inhibitors through regulating expression of dyskerin” (Journal of Enzyme Inhibition and Medicinal Chemistry, 2018).

Assays:
human glioma cell U87 = test: MTT anticancer assay, U87; format: cell-based; settings: 48 h exposure, mean ± SD, dash = footnote d 'None'
Description: The MTT was purchased from Sigma. Cell Cycle Analysis Kit and Apoptosis Analysis Kit were purchased from Bestbio (China). Mitochondrial membrane potential assay kit with JC-1 was purchased from Beyotime (China). All the materials were used as received without further purification unless noted specifically. The cell culture was maintained on DMEM medium (Hyclone, US) supplemented with 10% fetal bovine serum (Sijiqing, China), 100 U/mL penicillin and 100 µg/mL streptomycin in 25-cm^2 culture flasks at 37 °C humidified atmosphere with 5% CO2. Drugs were dissolved in DMSO and filtered through 0.22-µm pore-size filter units before addition to cell line appropriate media. When tumor cells were grown to log phase, diluting to 5 × 10^4 cells mL^−1 with the complete medium, 100 µL of the obtained cell suspension was added to each well of 96-well culture plates. The subsequent incubation was performed at 37 °C, 5% CO2 atmosphere for 48 h before subjecting to anti-proliferation assessment. After 48-h exposure period, 20 µL of PBS containing 5 mg·mL^−1 of MTT was added to each well. After 4 h, the medium was replaced by 150 µL DMSO to dissolve the purple formazan crystals produced. The absorbance at 492 nm of each well was measured on an ELISA plate reader. The data represented the mean of three experiments in triplicate and were expressed as means ± SD. The IC50 value was defined as the concentration at which 50% of the cells could survive. The following human tumor cell lines were used in the assay: human gastric cancer cells SGC-7901, human liver cancer cell SMMC-7721 and HepG2, human cervical cancer cell Hela and human glioma cell U87.

dyskerin = test: Immunofluorescence staining of dyskerin localisation; format: cell-based, human; settings: SGC-7901, 2 µM, 48 h
Description: SGC-7901 cells were grown on glass coverslips in a 6-well culture plate until approximately 30–40% confluent and then treated with compound 5i for 48 h. The coverslips were fixed in 4% paraformaldehyde for 15 min, followed by 0.5% Triton X-100 for 30 min at room temperature. Fixed and permeabilised cells were blocked with 3% BSA for 30 min at room temperature. Then, the cells were respectively immunolabeled with the appropriate primary and secondary antibodies. FITC-conjugated anti-rabbit IgG (ZSBIO, 1:100) for dyskerin emit green fluorescence. DAPI was used for nuclear staining.

[1] = tested on: DEN-induced rat hepatic tumor; test: In vivo tumor model, DEN-induced rat hepatic tumor (HE histopathology); settings: DEN-induced SD rats, 50 mg·kg−1 orally once a day, 10 weeks
Description: SD rats, male, 120 ∼ 160 g. 120 rats were divided randomly into two groups containing 12 normal rats and 108 DEN model rats. Rats were gavaged daily with DEN 8 mg/kg, once a day, 6 days a week. Normal saline rats were given the same volume, molding to 10 weeks. 60 model rats were randomly divided into five groups, 12 rats in each group, continued to give DEN; normal rats were given normal saline, molding to 16 week, stopped giving DEN. Compound 5i treatment group from the 10th week, 50 mg·kg^−1 was orally given, once a day, for 10 consecutive weeks. Similar parts of left lobe of liver were taken and fixed by 4% polyformaldehyde solution, embedded in paraffin, sliced and HE stained, for histopathological observation.

telomerase = biological target: T1, telomerase (Homo sapiens, UniProt O14746); test: Telomerase activity assay (TRAP-PCR-ELISA); format: biochemical; settings: SGC-7901 cells extracts, 24-h treatment, mean ± SD
T1 construct: endogenous in cells; host or cells: SGC-7901
Description: Inhibit of telomerase activity was tested using the TRAP-PCR-ELISA assay. In detail, the SGC-7901 cells were firstly maintained in DMEM medium (GIBCO, New York) supplemented with 10% fetal bovineserum (GIBCO, NewYork), streptomycin (0.1 mg/mL) and penicillin (100 IU/mL) at 37 °C in a humidified atmosphere containing 5% CO2. After trypsinisation, 5 × 10^4 cultured cells in logarithmic growth were seeded into T25 flasks (Corning, New York) and cultured to allow to adherence. The cells were then incubated with Staurosporine (Santa Cruz, Santa Cruz) and the drugs with a series of concentration as 60, 20, 6.67, 2.22, 0.74, 0.25 and 0.082 l g/mL, respectively. After 24-h treatment, the cells were harvested by cell scraper orderly following by washed once with PBS. The cells were lysed in 150 µL RIPA cell lysis buffer (Santa Cruz, Santa Cruz) and incubated on ice for 30 min. The cellular supernatants were obtained via centrifugation at 12,000 g for 20 min at 4 °C and stored at −80 °C. The TRAP-PCR-ELISA assay was performed using a telomerase detection kit (Roche, Basel, Switzerland) according to the manufacturer’s protocol. In brief, 2 µL of cell extracts were mixed with 48 µL TRAP reaction mixtures. PCR was then initiated at 94 °C, 120 s for predenaturation and performed using 35 cycles each consisting of 94 °C for 30 s, 50 °C for 30 s, 72 °C for 90 s. Then 20 µL of PCR products were hybridised to a digoxigenin (DIG)-labeled telomeric repeat specific detection probe. And the PCR products were immobilised via the biotin-labeled primer to a streptavidin-coated microtiter plate subsequently. The immobilised DNA fragment were detected with a peroxidase-conjugated anti-DIG antibody and visualised following addition of the stop regent. The microtitre plate was assessed on TECAN Infinite M200 microplate reader (Mannedorf, Switzerland) at a wavelength of 490 nm, and the final value were presented as mean ± SD.

[2] = tested on: human normal gastric mucosa cell (GES-1); test: Proliferative inhibition of human normal cell (MTT); format: cell-based; settings: GES1; MTT, human normal gastric mucosa cell; read-out: GES-1 IC50
Excerpt: In order to determine the selective cell toxicity of selected compounds. We subsequently conducted a proliferative inhibition assay with human normal gastric mucosa cell (GES-1).

Bcl-2/Bax = test: Western blot, Bcl-2/Bax; format: cell-based, human; settings: SGC-7901, 1, 2 and 4 μM, 48 h
Description: An equivalent volume of 5 × SDS-sample buffer was added to cell lysates and boiled for 10 min. The supernatants were subjected to electrophoresis on SDS-PAGE gels and transferred to PVDF membrane by using a Bio-Rad apparatus. Membranes were blocked for 3 h at room temperature in TBST containing 5% non-fat dried milk and probed overnight at 4 °C with antibodies. CyclinD1 (abcam, ab134175, 1:10000), CDC25A (abcam, ab156574, 1:1000), CDC25C (abcam, ab32051, 1:1000), bcl-2 (abcam, ab32124,1:1000), bax (abcam, ab32503, 1:1000), PARP (abcam, ab191217, 1:1000), γH2AX (abcam, ab81299, 1:5000), dyskerin (abcam, ab156877, 1:1000), NHP2 (abcam, ab180498, 1:1000), NOP10 (abcam, ab133726, 1:1000) antibody was performed with rabbit primary antibody. Otherwise, β-actin (ZSGB-BIO, 1:1000) detection was performed with mouse primary antibody which was served as internal controls. Protein bands of β-actin was visualised using peroxidase-labeled goat anti-mouse and others were visualised using peroxidase-labeled goat anti-rabbit secondary antibody (1:5000 dilution, 1 h, room temperature), and the protein expression signals were detected by the BeyoECL Plus (Beyotime).

T1 sequence (O14746 whole entry): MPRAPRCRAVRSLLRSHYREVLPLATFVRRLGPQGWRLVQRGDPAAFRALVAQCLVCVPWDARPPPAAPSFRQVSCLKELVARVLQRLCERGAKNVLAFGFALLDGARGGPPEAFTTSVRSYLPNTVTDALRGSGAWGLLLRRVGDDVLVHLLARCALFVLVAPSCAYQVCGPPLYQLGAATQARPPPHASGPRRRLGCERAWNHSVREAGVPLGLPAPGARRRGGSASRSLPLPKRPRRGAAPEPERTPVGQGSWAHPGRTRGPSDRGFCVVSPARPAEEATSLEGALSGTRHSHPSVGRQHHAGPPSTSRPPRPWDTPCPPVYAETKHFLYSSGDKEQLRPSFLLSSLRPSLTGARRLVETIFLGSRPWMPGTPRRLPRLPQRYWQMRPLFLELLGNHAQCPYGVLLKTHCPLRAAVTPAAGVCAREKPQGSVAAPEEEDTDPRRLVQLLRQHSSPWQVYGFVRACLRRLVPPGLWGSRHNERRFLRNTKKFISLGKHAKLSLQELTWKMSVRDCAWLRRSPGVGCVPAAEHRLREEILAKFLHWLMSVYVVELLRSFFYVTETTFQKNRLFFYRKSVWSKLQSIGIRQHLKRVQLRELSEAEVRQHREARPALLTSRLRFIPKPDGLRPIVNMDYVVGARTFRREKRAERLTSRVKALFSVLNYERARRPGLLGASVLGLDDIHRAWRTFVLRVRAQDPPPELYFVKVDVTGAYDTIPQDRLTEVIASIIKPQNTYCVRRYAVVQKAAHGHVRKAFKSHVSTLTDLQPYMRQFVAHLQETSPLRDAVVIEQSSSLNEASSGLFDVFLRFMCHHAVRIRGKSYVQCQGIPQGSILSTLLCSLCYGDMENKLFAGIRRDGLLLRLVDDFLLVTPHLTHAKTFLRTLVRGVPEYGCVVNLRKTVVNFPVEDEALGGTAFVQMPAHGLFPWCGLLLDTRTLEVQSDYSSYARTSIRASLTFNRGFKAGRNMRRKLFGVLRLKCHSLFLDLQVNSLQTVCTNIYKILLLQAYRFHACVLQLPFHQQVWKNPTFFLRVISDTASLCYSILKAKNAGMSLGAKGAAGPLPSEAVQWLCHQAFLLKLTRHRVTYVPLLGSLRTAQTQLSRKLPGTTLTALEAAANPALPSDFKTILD
T1 sequence (O60832 whole entry partner): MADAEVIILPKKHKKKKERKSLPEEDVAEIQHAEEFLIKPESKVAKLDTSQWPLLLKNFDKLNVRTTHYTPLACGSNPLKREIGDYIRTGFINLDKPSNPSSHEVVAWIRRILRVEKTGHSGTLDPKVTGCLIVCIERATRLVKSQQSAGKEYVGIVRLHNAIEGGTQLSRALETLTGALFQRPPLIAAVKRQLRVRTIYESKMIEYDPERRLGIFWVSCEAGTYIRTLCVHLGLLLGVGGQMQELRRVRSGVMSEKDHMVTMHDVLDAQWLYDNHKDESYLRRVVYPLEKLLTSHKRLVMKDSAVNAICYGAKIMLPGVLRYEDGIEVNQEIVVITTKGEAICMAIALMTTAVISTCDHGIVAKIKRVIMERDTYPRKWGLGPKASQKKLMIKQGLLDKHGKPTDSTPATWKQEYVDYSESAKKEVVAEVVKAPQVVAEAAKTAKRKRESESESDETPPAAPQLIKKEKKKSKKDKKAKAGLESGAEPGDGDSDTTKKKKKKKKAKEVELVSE
T1 sequence (Q9NX24 whole entry partner): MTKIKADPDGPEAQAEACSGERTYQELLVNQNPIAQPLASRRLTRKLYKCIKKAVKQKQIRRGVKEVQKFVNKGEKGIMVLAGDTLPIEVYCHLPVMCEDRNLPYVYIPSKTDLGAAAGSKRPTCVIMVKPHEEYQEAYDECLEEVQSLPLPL
T1 sequence (Q9NPE3 whole entry partner): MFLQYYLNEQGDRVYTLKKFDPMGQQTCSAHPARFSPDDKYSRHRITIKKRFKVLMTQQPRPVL
T1 sequence (Q9NY12 whole entry partner): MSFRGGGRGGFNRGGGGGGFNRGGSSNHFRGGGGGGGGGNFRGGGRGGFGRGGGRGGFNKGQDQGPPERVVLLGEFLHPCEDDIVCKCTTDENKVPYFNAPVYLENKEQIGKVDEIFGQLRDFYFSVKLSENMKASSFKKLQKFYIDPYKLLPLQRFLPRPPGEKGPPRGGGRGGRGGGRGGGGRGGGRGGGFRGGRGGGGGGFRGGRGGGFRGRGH

COc1cc(OC)c2c(=O)c(OCCCCN3CCN(C(=O)c4ccncc4)CC3)c(-c3cc(OC)c(OC)c(OC)c3)oc2c1 [Compound 5i, 3-(4-(4-isonicotinoylpiperazin-1-yl)butoxy)-5,7-dimethoxy-2-(3,4,5-trimethoxyphenyl)-4H-chromen-4-one]
IC50 (human glioma cell U87): 2.5 ± 0.11 µM | cytoplasm localisation dyskerin (immunofluorescence) (dyskerin): significantly reduced | nucleus dyskerin (immunofluorescence) (dyskerin): almost all the nucleus dyskerin was disappeared | pathological changes of rat hepatic tumor (HE staining) [1]: significantly improve pathological changes | IC50 (telomerase): 0.89 ± 0.17 µM | IC50 [2]: 3710 ± 330 µM | proportion of Bcl-2/Bax (western blot) (Bcl-2/Bax): reduced
